Series [1] concerns Salmonella typhimurium strain TA 98, TA 100, TA 1535, TA 1537 and Escherichia coli strain WP2 avrA. Briefly: Ames test (bacterial reverse mutation assay). Type of series: cell-based. The conditions noted are these: 10-1000 μg per plate, with and without metabolic activation (rat liver supernatant). As for the experimental part: Para-topolin and para-topolin mesylate were tested for mutagenicity by a bacterial reverse mutation assay. The performance of the test was based on the EU method B.13/14 Mutagenicity-Reverse mutation test using bacteria, Council Regulation (EC) No. 440/2008, which is analogous to the OECD Test Guideline No. 471. Four indicators of Salmonella typhimurium strain TA 98, TA 100, TA 1535, TA 1537 were used and one Escherichia coli strain WP2 avrA was also used. The test substances were dissolved in dimethyl sulfoxide (DMSO) and tested at doses of 10-1000 μg per plate, which was applied to 0.1 ml plates. The experiments were performed with metabolic activation with rat liver supernatant and cofactor mixture as well as without metabolic activation.
(In the Ames test, an excess of revertant colonies over the control signals mutagenicity.)

Series [2] can be described thus: Solubility in various organic solvents. In kind it is physicochemical. As for the experimental part:
Solubility in various organic solvents was measured using the following protocol. Approximately 10 mg portions of para-topolin and crystalline para-topolin mesylate salt were placed in different vials, separately. Five volume aliquots of each solvent were added exclusively to a vial. Between each addition, the mixture was checked for dissolution and if no dissolution was apparent, the procedure was continued until dissolution was observed or further volumes had been added.

The subject of series [3] is Senescent human diploid fibroblasts. Briefly: Senescent cells (beta-galactosidase X-gal staining) in human fibroblast culture. In kind it is cell-based. As for the experimental part: Senescent human diploid fibroblasts (cells of different levels of passage: passage 20-P20; passage 40—labeled P40; passage 80—labeled P80) were seeded in a 24-well plate (10,000 cells/well). The culture medium (DMEM containing 5 g/l glucose, 2 mM glutamine, 100 U/ml penicillin, 100 μg/ml streptomycin and 10% fetal calf serum) was removed and replaced with culture medium containing test compound in a concentration range of 0 to 12.5 μM. Each concentration was tested in triplicate. The cells were then incubated at 37° C. […] In this experiment, senescent cells, but not other cells, were stained blue due to β-galactosidase on the substrate. […] In the oldest cells, there were only blue cells, from bright blue to almost opaque in color. Both para-topolins (base and mesylate salt) were effective in maintaining much lower levels of senescent cells after 80 passages. In the case of long-term culture, the treated cells were able to live 30% longer than the control cells.

Series [4] can be described thus: ORAC (Oxygen Radical Absorbance Capacity), ability to scavenge free radicals. Type of series: biochemical. The conditions noted are these: n = 3. As for the experimental part: The ability of the substance to scavenge free radicals in vitro was determined using the ORAC (Oxygen Radical Absorbance Capacity) method. Briefly, 100 μl of fluorescein ([…]) and 25 μl of tested substance solution were pipetted into each well of a 96-well microtiter plate preheated to 37° C. The reaction itself was started by the addition of 25 μL 250 mM AAPH. After shaking for 5 s, the fluorescence (Ex. 485 nm, Em. 510 nm) was read every 3 min for 90 min using an Infinite 200 instrument (TECAN, Switzerland). The area under the curve was used to express the antioxidant capacity relative to trolox, which is used as a standard. […] Such activities are likely to be closely related to the electron-rich C6-hydroxybenzylamino substituent system.

Series [5] deals with Human diploid fibroblast BJ. Briefly: MTT cytotoxicity assay in normal fibroblasts. Type of series: cell-based. The following applies: 72 hours. As for the experimental part: MTT (metabolic tetrazolium toxicity) assay is a standard colorimetric assay for evaluation of cytotoxicity. Mitochondrial dehydrogenase activity converts yellow MTT into violet formazan which is measured by means of spectrometry. Human diploid fibroblast BJ (passage 18-22) were seeded into 96-well plate (5.000 cells per well). After 6 hours cultivation medium (DMEM with 5 g/l glucose, 2 mM glutamine, 100 U/ml penicillin, […] streptomycin, 10% fetal calf serum and sodium bicarbonate) was replaced with the cultivation medium containing test compounds in concentration range of 0-200 μM. Highest concentration was adjusted if the solubility of the compound was limiting. Every concentration was tested in pentaplicate. MTT was added to the cells after 72 hours incubation (final concentration 0.5 mg/ml) and incubation continued for another 3 hours. MTT was solubilised by DMSO and absorbance at 570 nm was measured. Growth inhibition (GI) was estimated using the following equitation: GI=(mean A drug exposed wells-mean Ablank/mean Acontrol wells−mean Ablank)×100%. The GI20 value, the drug concentration causing 20% decrease in mitochondrial dehydrogenase activity, was calculated from the obtained dose response curves.
A general note: Tetrazolium assays rely on reduction of a dye to a coloured formazan, in cell work by metabolically active cells.

Another series has as its system Rat glioma C6 cells. Briefly: Anti-inflammatory activity: isoproterenol-induced intracellular cAMP synthesis. Type of series: cell-based. The procedure: The anti-inflammatory activity of para-topolin and para-topolin mesylate was determined; cytokinin kinetin was also evaluated as a control. Rat glioma C6 cells (ATCC No. CCL107) were cultured in a monolayer in chemically defined beser medium containing Ham's F10/minimal essential medium (1:1 v/v), 2 mM L-glutamine, 1% (v/v). Minimum vitamins of essential medium (100×), 1% (v/v) minimum essential amino acids (100×), 100 U/ml penicillin, […] streptomycin and 30 nM sodium selenite. Incubation was performed at 37° C. in a 100% humidified atmosphere. The assays were performed in logarithmic growth phase at a density of 2.5×10^5 cells/cm^2. Intracellular cAMP synthesis was induced by the addition of 5 mM (−)-isoproterenol; at the same time, various concentrations of tested compounds were added at the same time as (−)-isoproterenol. After 30 minutes of incubation, the cellular amount of CAMP was determined by ELISA (cAMP-enzyme immunoassay from Amersham). IC50 values were determined from the […] dose-response curve.

The mark [6] stands for this setting: isoproterenol-induced cAMP, C6 cells.

≈ marks a conversion by molar mass, not a printed value. Where a name gives a salt, the structure may show the parent alone. Read-outs that look alike come from different tables or passages of the source.

With `Oc1ccc(CNc2ncnc3nc[nH]c23)cc1` [para-topolin mesylate, 6-(4-hydroxybenzylamino) purine (para-topolin) mesylate (methylsulphonate)], the Mutagenicity entry in series [1] is on record as “non-mutagenic”. The Solubility (usually how much of the substance goes into solution per volume) in series [2] (DMF, listed as p-topolin mesylate) was 14000 µg/mL; in series [2] (DMSO, listed as p-topolin mesylate), 10000 µg/mL; in series [2] (acetone, listed as p-topolin mesylate), 330 µg/mL; in series [2] (acetonitrile), under 250 µg/mL; in series [2] (ethanol, listed as p-topolin mesylate), 400 µg/mL; in series [2] (heptane), under 100 µg/mL. The same compound yielded a Solubility in series [2] (methanol, listed as p-topolin mesylate) of 5000 µg/mL. For the same compound, the “Senescent cells (%)” value in series [3] (cell passage P20, listed as 6-(4-hydroxybenzylamino)purine mesylate (para-topolin mesylate)) was determined as 3%; in series [3] (cell passage P40, listed as 6-(4-hydroxybenzylamino)purine mesylate (para-topolin mesylate)) it was 12%; in series [3] (cell passage P80, listed as 6-(4-hydroxybenzylamino)purine mesylate (para-topolin mesylate)) it was 21%. Further, the “ORAC Average(TE), Trolox equivalents on equimolar basis” value in series [4] (listed as 6-(4-hydroxybenzylamino)purinium mesylate (pT mesylate)) stood at 21.436 TE. Moreover, the “Cytotoxicity for Human Diploid Fibroblasts GI20” value in series [5] (listed as 6-(4-hydroxybenzylamino)purine mesylate (para-topolin mesylate)) is over 167 µM. Moreover, the “Anti-inflammatory activity (in words)” value with Rat glioma C6 cells (setting [6]) is “showed anti-inflammatory activity”. In addition, the “Anti-inflammatory activity relative to free base para-topolin” value in the series with Rat glioma C6 cells (setting [6]) is given as “twice more active”.

In the case of `Oc1ccc(CNc2ncnc3nc[nH]c23)cc1` [para-topolin, 6-(4-Hydroxybenzylamino) purine], the Mutagenicity result in series [1] was “non-mutagenic”. The Solubility in series [2] (DMF, listed as p-topolin) was 5000 µg/mL (≈ 20700 µM); in series [2] (DMSO, organic solvent or mixture, thermodynamic from solid, DMSO, read-out: Solubility), 6660 µg/mL (≈ 27600 µM); in series [2] (acetone, organic solvent or mixture, thermodynamic from solid, acetone, read-out: Solubility) it was 200 µg/mL (≈ 829 µM); in series [2] (acetonitrile, organic solvent or mixture, thermodynamic from solid, acetonitrile, read-out: Solubility), under 250 µg/mL; in series [2] (ethanol, organic solvent or mixture, thermodynamic from solid, ethanol, read-out: Solubility), 250 µg/mL (≈ 1040 µM); in series [2] (heptane, organic solvent or mixture, thermodynamic from solid, heptane, read-out: Solubility), under 100 µg/mL. This compound had a Solubility in series [2] (methanol, listed as p-topolin) of 250 µg/mL (≈ 1040 µM). Further, the “Senescent cells (%)” value in series [3] (cell passage P20, listed as 6-(4-hydroxybenzylamino)purine (para-topolin)) amounted to 4%; in series [3] (cell passage P40, listed as 6-(4-hydroxybenzylamino)purine (para-topolin)), 14%; in series [3] (cell passage P80, listed as 6-(4-hydroxybenzylamino)purine (para-topolin)) it was 25%. Also, in series [4] (listed as 6-(4-hydroxybenzylamino)purine (pT)), the “ORAC Average(TE), Trolox equivalents on equimolar basis” value worked out at 16.799 TE. Moreover, the “Cytotoxicity for Human Diploid Fibroblasts GI20” value in series [5] (listed as 6-(4-hydroxybenzylamino)purine (para-topolin)) was 138 µM. In addition, the IC50 (in general, the midpoint of a concentration-inhibition curve) in the series with Rat glioma C6 cells (Rattus norvegicus, C6, 0.5 h, 5 mM (−)-isoproterenol, 30 minutes, cAMP by ELISA) came out at 7 µM. In addition, the “Anti-inflammatory activity (in words)” value with Rat glioma C6 cells (setting [6]) was “showed anti-inflammatory activity”.

For the origin of these results see patent publication US12378247B2, “Mesylate salt of para-topolin, compositions containing said salt and use thereof” (USTAV EXPERIMENTALNI BOTANIKY AV CR, V. V. I., priority 2020, dated 2025).
